The values below come from publication PMC9856672, “SGC-CAMKK2-1: A Chemical Probe for CAMKK2” (Cells, 2023).

For assay [1], the system named is p-AMPK(Thr172) in C4-2 cells. Briefly: Western blot of p-AMPK(Thr172) in C4-2 prostate cancer cells. In kind it is cell-based. Conditions: 24 h treatment; for IC50: C4-2, 24 h, three individual experiments, read-out: IC50 for decrease of p-AMPK(Thr172) normalized to total AMPK. The method, then:
C4-2 cells were plated in 6-well plates in IMEM medium containing 0.5% FBS. After 72 h, the cells were then treated with the compounds for 24 h before the media was aspirated and cells were washed twice in ice-cold PBS. Cells were lysed using RIPA buffer containing phosphatase and protease inhibitor cocktail while rotating for 30 min at 4 °C. In each lane, 30 μg/well of protein lysate was loaded into a 10% SDS-PAGE gel and run for 1 h and 30 min. Gels were then transferred overnight in a TRIS-glycine/methanol transfer buffer onto a PVDF membrane at 4 °C. Membranes were blocked, incubated with primary overnight at 4 °C, washed, incubated with secondary at room temperature for 1 h, washed, and then developed on an Azure Biosystems C-600 imager. Densitometry was performed using ImageJ. Total-AMPK was normalized to GAPDH and then p-AMPK was normalized to normalized total-AMPK. Normalized p-AMPK was used to calculate IC50 in GraphPad Prism 9.5.0. Primary antibodies used were from Cell Signaling (Danvers, MA, USA; Phospho-AMPKα (Thr172) (40H9) Rabbit mAb: Cat#: 2535; AMPKα (D5A2) Rabbit mAb Cat#: 5831), BD Bioscience (Franklin Lakes, NJ, USA; CAMKK2 mouse mAb Cat# 610544), and Sigma (St. Louis, MO, USA; GAPDH rabbit pAb: Cat# G9545). Secondary antibody (Goat Anti-Rabbit IgG (H + L)-HRP Conjugate; Cat#:1706515) was from Bio-Rad Laboratories (Hercules, CA, USA).
In this experiment, IC50 was calculated via quantifying changes in p-AMPK(Thr172) normalized to total AMPK levels.
For orientation: Immunoblotting shows a protein as a band on a membrane.

Assay [2] has as its system panel of more than 400 wild-type human kinases. Briefly: DiscoverX KINOMEscan broad kinome profiling (panel of more than 400 wild-type human kinases), selectivity score S10. The assay is classed as binding. The settings on record: KINOMEscan at 1 μM; number of wild type kinases with % control ≤10 / number tested. The method, then:
Compounds were screened at Eurofins DiscoverX (Freemont, CA) at a single concentration of 1 μM using binding assays as described previously. Briefly, extracts containing DNA-tagged kinases are incubated with immobilized kinase inhibitors and the test compound (at 1 μM). Test compounds that displace the immobilized broad-spectrum inhibitors are detected by quantitative PCR. The results are expressed as the percentage of kinase bound to the bead compared to DMSO control (%control). […] The formula to calculate S10 depicted in Equation (1). (1) S10(1 μM)=number of wild type kinase with % control ≤10/number of wild type kinase tested
A series of furo [2,3-b]pyridines were generated with modifications off the core at the 3- and 5-positions. They were profiled in the CAMKK2 enzyme assay we have described and utilized previously. Briefly, the enzyme assay measures the ability of the compound to inhibit the transfer of a radiolabeled phosphate from ATP to a CAMKK2-specific peptide. […] 5 was then profiled in the DiscoverX KINOMEscan™ assay panel to provide a view of the overall kinome-wide selectivity (Supplemental S2). This assay platform evaluates compound affinity for a panel of more than 400 wild-type human kinases. The S10 (1 µM), a calculated score that is reflective of broad kinome selectivity, is 0.002 for the probe molecule.

The target of another assay is CAMKK2 (Homo sapiens, UniProt Q96RR4). The experiment in a line: CAMKK2 enzyme assay (radiolabeled phosphate transfer from [γ-32P]-ATP to CaMKKtide). On the set-up: purified recombinant CAMKK2 (100 pM) was incubated in assay buffer. The assay is classed as biochemical. Conditions: 200 μM ATP, 100 pM CAMKK2. As for the experimental part:
CAMKK2 activity was determined by measuring the transfer of radiolabeled phosphate from [γ-^32P]-ATP to a synthetic peptide substrate (CaMKKtide) as previously described. Briefly, purified recombinant CAMKK2 (100 pM) was incubated in assay buffer (50 mM HEPES [pH 7.4], 1 mM DTT, 0.02% [v/v] Brij-35) containing 200 μM CaMKKtide (Genscript), 100 μM CaCl2, 1 μM CaM (Sigma-Aldrich, Castle Hill, NSW, Australia), 200 μM [γ-^32P]-ATP (Perkin Elmer, Boston, MA, USA), 5 mM MgCl2 (Sigma-Aldrich, Castle Hill, NSW, Australia), and various concentrations of inhibitors (0–1 μM) in a standard 30 μL assay for 10 min at 30 °C. Reactions were terminated by spotting 15 μL onto P81 phosphocellulose paper (GE Lifesciences, Paramatta, NSW, Australia) and washing extensively in 1% phosphoric acid (Sigma-Aldrich, Castle Hill, NSW, Australia). Radioactivity was quantified by liquid scintillation counting.
A series of furo [2,3-b]pyridines were generated with modifications off the core at the 3- and 5-positions. They were profiled in the CAMKK2 enzyme assay we have described and utilized previously. Briefly, the enzyme assay measures the ability of the compound to inhibit the transfer of a radiolabeled phosphate from ATP to a CAMKK2-specific peptide. […] The S10 (1 µM), a calculated score that is reflective of broad kinome selectivity, is 0.002 for the probe molecule.

Assay [3] concerns p-AMPK(Thr172) in MDA-MB-231 cells. The experiment in a line: Immunoblot of p-AMPK(Thr172) in MDA-MB-231 breast cancer cells. The settings on record: 24 h. The assay is classed as cell-based. As for the experimental part:
The cells were then washed three times with 2 mL of ice-cold PBS and lysed with 0.15 mL of phospho-RIPA lysis buffer (Tris-Cl pH 7.5, 50 mM; NaCl, 150 mM; NP-40, 1%; sodium deoxycholate, 0.5%; SDS, 0.05%; EDTA, 5 mM; sodium fluoride, 50 mM; sodium pyrophosphate, 15 mM; ß-glycerophosphate, 10 mM; sodium orthovanadate, 1 mM) with protease inhibitor cocktail (Millipore-Sigma, P-8340). Equal amounts of protein per sample/lane were denatured and resolved by SDS-PAGE. Proteins were transferred to Odyssey Nitrocellulose Membranes (LI-COR Biosciences, cat no: 926-31092), and quantitative immunoblotting was performed using the Odyssey infrared immunoblotting detection system (LI-COR Biosciences, Lincoln, NE, USA). Images were captured using the LI-COR Odyssey Classic scanner and processed using LI-COR Image Studio software, version 4.0. Quantification of the bands was done using Image Studio software tools whereby each individual immunoblot band was highlighted to obtain the signal intensity. The signal intensity of the pAMPK band was then divided by that of total AMPK and the data were normalized to the vehicle-only controls for each experiment. Primary antibodies used were anti-phospho AMPKα (Thr172) (Cell Signaling, cat no: 2535, dilution 1:1000); anti-AMPKα (Cell Signaling, cat.no: 2532, dil 1:500), and anti β-actin (Cat no: 3700, Cell signaling, dil 1:10,000). […]

The next assay has as its target T1, DAPK3 (Homo sapiens, UniProt O43293).
T1 construct: purchased Eurofins DiscoverX KINOMEscan
The experiment in a line: KINOMEscan at 1 μM, DAPK3. The assay is classed as binding. Conditions: 1000 nM, read-out: Percent Control. The text has this:
Supplement cells-12-00287-s001.zip/File S2. KinomeScan data for the CAMKK2 probe and negative control.xlsx, sheet "SGC-CAMKK2-1N" | column: Percent Control

Entries after “also recorded” stand apart in the source; their conditions may differ. Where only a bound is given, the exact number is not on record here.

T1 sequence (O43293 whole entry): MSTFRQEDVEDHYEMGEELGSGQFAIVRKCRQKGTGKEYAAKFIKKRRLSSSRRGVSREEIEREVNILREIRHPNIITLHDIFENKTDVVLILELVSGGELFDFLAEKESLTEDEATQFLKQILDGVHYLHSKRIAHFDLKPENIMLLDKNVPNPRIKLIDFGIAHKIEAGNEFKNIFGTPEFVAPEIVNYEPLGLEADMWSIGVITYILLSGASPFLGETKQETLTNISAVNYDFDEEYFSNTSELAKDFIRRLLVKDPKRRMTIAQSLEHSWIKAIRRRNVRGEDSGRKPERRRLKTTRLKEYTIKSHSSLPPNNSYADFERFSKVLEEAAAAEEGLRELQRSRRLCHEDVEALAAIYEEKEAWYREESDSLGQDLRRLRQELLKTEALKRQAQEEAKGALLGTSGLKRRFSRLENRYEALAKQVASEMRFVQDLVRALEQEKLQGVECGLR

Turning to `Cc1cccc(-c2cnc3occ(-c4ccc(C(=O)O)c(C5CCCC5)c4)c3c2)c1` [Compound 5], the IC50 (usually the concentration needed to halve the response being measured) in assay [1] was determined as 1600 nM; on CAMKK2, 30 nM. Also, the “S10 (1 μM)” value in assay [2] is given as 0.002. For the same compound, the “blocking of AMPK phosphorylation (in words)” value in assay [3] (SGC-CAMKK2-1) is given as “more effective than STO-609; also recorded: higher efficacy than STO-609”.

`O=C(O)c1ccc(-c2coc3ncc(-c4ccccc4)cc23)cc1Cl` [Compound 7]: the “activity on p-AMPK(Thr172) levels (in words)” value in assay [1] was “did not have any measurable activity”. Moreover, the IC50 in assay [1] was at least 10000 nM; at CAMKK2 (n = 1), 27000 nM. In assay [2], the “S10 (1 μM)” value is on record as 0.005. Also, in assay [3] (negative control at 10 μM), the “blocking of AMPK phosphorylation (in words)” value was “no effect”.

For `O=C(O)c1ccc(-c2coc3ncc(-c4ccccc4)cc23)cc1Cl` [SGC-CAMKK2-1N (UNC-YL-83)], the remaining binding at 1 µM at DAPK3 was determined as 71%.
